Entries after “also recorded” stand apart in the source; their conditions may differ. Where no end group is shown, it is not given here.
How the values were obtained:
[1] = tested on: MDA-MB-231 cells; experiment: In vitro mRNA transfection with HK polyplexes (luciferase mRNA, luciferase activity); format: cell-based; conditions: for RLU/μg-Protein (luciferase activity): mRNA 1 μg, 24 h; for effectiveness as carrier of mRNA (in words): luciferase mRNA, HK polyplex; for mRNA transfection relative to H3K(+H)4b (in words): 4:1 ratio (HK:mRNA)
Procedure: FIG. 1. Comparison of H3K(+H)4b and H3K4b peptides as carriers of mRNA. To form the HK polyplexes, the mRNA (1 μg) was mixed with 3 different ratios of the HK ([…]) polymer for 30 minutes. The HK polyplexes were then added to the cells for 24 h before the luciferase activity was measured. ****, H3K(+H)4b vs H3K4b, P<0.0001.
In vitro mRNA Transfection. Several HK polymers were examined for their ability to carry a luciferase-expressing mRNA (CleanCap Firefly Luciferase mRNA, Trilink Biotechnologies, Inc, San Diego, CA) into MDA-MB-231 cells (America Type Tissue Culture, Manassas, VA). In brief, 3×10^4 cells were plated into a 24-well plate containing 500 μl of DMEM and 10% fetal bovine serum (ThermoFisher Scientific, Waltham, MA). After 24 h, when the cells were 60 to 80% confluent, the media in each well was changed to Opti-MEM (ThermoFisher Scientific). To prepare HK polyplexes, mRNA (1 μg) in 50 μl of Opti-MEM was briefly mixed well with one of the HK polymers (4 to 12 μg) and maintained at room temperature for 30 min. This polyplex was then added dropwise to the cells. After four h, the Opti-MEM media was removed and replaced with 0.5 ml of DMEM/10% serum (0.5 ml). Twenty-four hours later, the cells were lysed, and the luciferase activity (Promega Corporation, Madison, WI) was measured.
To obtain the data in Table 4, luciferase-expressing mRNA (1 μg) in 50 μl of Opti-MEM was briefly mixed with one of the HK polymers (4, 8, or 12 μg) and maintained at room temperature for 30 min. The resulting polyplexes were added dropwise to the MDA-NM-231 cells and after four h, the Opti-MEM media was removed and replaced with DMEM/10% serum. Twenty-four hours later, the cells were lysed, and the luciferase activity was measured

[2] = tested on: mRNA; experiment: Heparin displacement assays (gel electrophoresis and Sybr Gold dye intercalation); format: physicochemical; conditions: HK:mRNA 4:1 wt/wt
Procedure: FIG. 4. Heparin Displacement Assays. After HK polyplexes were formed (wt:wt; HK:mRNA; 4 μg:1 μg), different concentrations of heparin […] were incubated with these for 30 min. A. Gel Retardation. The HK polyplexes were loaded on the agarose gel (1%), and electrophoresis was carried out and stained with Sybr Gold. B. Fluorescent dye intercalation. After the HK polyplexes were formed and incubated with several concentrations of heparin, the Sybr Gold nucleic acid dye was incubated with the HK polyplexes for 5 mins. Fluorescence was then measured by a microplate fluorimeter (λex=497 nm, λem=520 nm) (SynergyMx, BioTek). *, P<0.05; ***, P<0.001; H3K4b or H2K vs. H3K(+H)4b.
Heparin Displacement Assays. Heparin displacement assays of HK polyplexes were done with the dye intercalation assay and with gel electrophoresis. A fluorescent assay assessed polyplexes of HK polymer and mRNA (4:1 wt/wt ratio; polymer:mRNA) formed in RNAse/DNAase free water (Corning, Manassas, VA). HK polyplexes were prepared as described previously, followed by the addition of diluted Syber Gold. For detection, working dilutions of the polyplexes (1/5 of volume), water (3/5) and Sybr Gold dye (1/5, 0.2×) were incubated for 5 minutes, and fluorescence was measured by a fluorimeter (Ex=497 nm, Em=520 nm) (SynergyMx, BioTek, Winooski, VT). The control sample was prepared with the same amount of mRNA, water, and Sybr Gold dye. For the heparin displacement, instead of water, heparin salt (Sigma-Aldrich, St. Louis, MO) solutions at different concentrations (0.5, 1, 1.5, 2, 3 μg/μl) were used, and the HK polyplexes were incubated at 37° C. for 30 min before addition of Sybr Gold.
Displacement of mRNA from HK polyplexes with heparin was also done with gel electrophoresis. After HK polyplexes were formed, different concentrations of heparin (0.5, 1.0, 1.5, 2.0, 3.0 μg/μl; volume 20 μl) were incubated with these at 37° C. for 30 min. The polyplexes were then loaded on the agarose gel (1%; 10× BlueJuice Gel loading buffer), and electrophoresis was carried out and stained with SG as described above. […]

[3] = prior studies [27]; cited from earlier work
[4] = prior studies [34, 35, 45]; cited from earlier work
[5] = prior study [43]; cited from earlier work
[6] = tested on: human cells; conditions: cited from earlier work
[7] = ratio mRNA:polymer 1:12 (wt:wt)

Row | Substance | RLU/μg-Protein (luciferase activity) ([1]; ratio mRNA:polymer 1:4 (wt:wt)) [RLU/μg-Protein] | RLU/μg-Protein (luciferase activity) ([1]; ratio mRNA:polymer 1:8 (wt:wt)) [RLU/μg-Protein] | RLU/μg-Protein (luciferase activity) [1, 7] [RLU/μg-Protein] | binding/release of mRNA and polyplex stability on exposure to heparin (in words) [2] | carrier of DNA plasmids (in words) [3] | carrier of siRNA (in words) [4] | effectiveness as carrier of mRNA (in words) [1] | fold less effective in transfecting mRNA compared to H3K(+H)4b ([1]; 4:1 ratio (HK:mRNA; wt:wt)) | antimicrobial activity (in words) [5] | cytotoxicity to human cells (in words) [6] | mRNA transfection relative to H3K(+H)4b (in words) [1]
1 | H2K4b: four-branched HK polymer on three-lysine core, each branch R = KHKHHKHHKHHKHHKHHKHK- (SEQ ID NO: 5) (also: one of four branches on a three-lysine core) | 546.7 ± 70.1 | 132.3 ± 58.5 | 194.7 ± 18.4 | too stable | good carrier of large molecular weight DNA plasmids | poor carrier of relatively low molecular weight siRNA | – | – | – | – | –
2 | H3K(1+H)4b: four-branched HK polymer, each branch R = KHHHKHHHKHHHKHHHHK- (SEQ ID NO: 12) (also: one of four branches on a branched lysine core) | 24.3 ± 4.5 | 15.0 ± 3.6 | 7.3 ± 2.5 | – | – | – | poor carriers of mRNA | – | – | – | –
3 | H3K(1,3+H)4b: four-branched HK polymer, each branch R = KHHHKHHHHKHHHKHHHHK- (SEQ ID NO: 14) (also: one of four branches on a branched lysine core) | 518.3 ± 134.7 | 427.7 ± 18.1 | 378 ± 5.2 | – | – | – | – | about 2.5 fold | – | – | –
4 | H3K(3+H)4b: four-branched HK polymer, each branch R = KHHHKHHHHKHHHKHHHK- (SEQ ID NO: 13) (also: one of four branches on a branched lysine core) | 61.7 ± 5.7 | 68.7 ± 3.1 | 59.0 ± 7.5 | – | – | – | poor carriers of mRNA | – | – | – | –
5 | H3k4b (KHHHKHHHKHHHKHHHK; also: one of four branches on a branched lysine core) | – | – | – | – | – | – | – | – | greater antimicrobial activity | no observed cytotoxicity to human cells | –
6 | H4K4b: four-branched HK polymer, each branch R = KHHHHKHHHHKHHHHKHHHHK- (SEQ ID NO: 11) (also: one of four branches on a branched lysine core) | 896.4 ± 112.6 | 821.8 ± 115.6 | 522.4 ± 69.2 | – | – | – | effective carriers of mRNA | – | – | – | did not enhance mRNA transfection
7 | H-H3K(+H)4b: four-branched HK polymer, each branch R = HKHHHKHHHKHHHHKHHHK- (SEQ ID NO: 9) (also: one of four branches on a branched lysine core) | 1107.5 ± 140.4 | 874.6 ± 65.2 | 676.4 ± 25.7 | – | – | – | effective carriers of mRNA; also recorded: markedly more effective as a carrier of mRNA | – | – | – | did not improve mRNA transfection more than H3K(+H)4b
